These results are taken from patent publication US5079260A, “Method for treating inflammation and compounds and compositions suitable for use therein” (Nova Pharmaceutical Corporation, priority 1990, dated 1992).

The structures appear in SMILES notation.

The first test concerns Ear Edema Caused By Tetradecanoylphorbol Acetate. As to the kind of experiment: Inhibition of Ear Edema Caused by Tetradecanoylphorbol Acetate (II), Table 7. The following applies: i.p., 10 mg/kg; 3 h. Type of test: in vivo, CF-1 Mice. The procedure:
Inhibition of Ear Edema Caused by Tetradecanoylphorbol Acetate (II)
CF-1 Mice, 25-30 g body weight, six animals per group were used. Test compounds were administered intraperitoneally or topically as follows. For intraperitoneal administration, the test compound was dissolved in dimethyl sulfoxide or 0.5% methylcellulose and 100 microliters was injected 30 minutes prior to irritant (100 mg/kg, i.p.). […] A solution of the irritant, tetradecanoylphorbol acetate, 200 μg/mL, was added to the surface of the ear, 5 μL to the upper surface and 5 μL to the lower surface. After three hours, the thickness of the ear was measured to 0.01 mm by a micrometer with loose drag, positioned at the lateral-most edge of the mid-point of the pinna. Data were calculated as the inhibition of increased ear thickness compared to control animals receiving only the irritant.
In the case of `O=C(CCC1c2ccccc2-c2ccccc21)N[C@@H](CCc1ccccc1)C(=O)O` [NPC 15895, N-[3-(9H-Fluoren-9-yl)propionyl]-L-Homophenylalanine, quarter hydrate], the “% Inhibition Intraperitoneal” value is 68%.
On to `CCCC[C@H](NC(=O)CCC1c2ccccc2-c2ccccc21)C(=O)O` [NPC 15894, N-[3-(9H-Fluoren-9-yl)propionyl]-L-norleucine, quarter hydrate], for which the “% Inhibition Intraperitoneal” value is 11%.
Take `Cc1cccc2c1-c1c(C)cccc1C2COC(=O)N[C@@H](CC(C)C)C(=O)O` [NPC 15670]: the “% Inhibition Intraperitoneal” value was found to be 27%.

The test is the same for the next values; noted with them: i.p., 30 mg/kg; 3 h.
Take `O=C(CCC1c2ccccc2-c2ccccc21)N[C@@H](CCc1ccccc1)C(=O)O` [NPC 15895, N-[3-(9H-Fluoren-9-yl)propionyl]-L-Homophenylalanine, quarter hydrate]: the “% Inhibition Intraperitoneal” value stood at 71%.
Still for that read-out and setting: in the case of `CCCC[C@H](NC(=O)CCC1c2ccccc2-c2ccccc21)C(=O)O` [NPC 15894, N-[3-(9H-Fluoren-9-yl)propionyl]-L-norleucine, quarter hydrate] it was 0%.
Turning to `Cc1cccc2c1-c1c(C)cccc1C2COC(=O)N[C@@H](CC(C)C)C(=O)O` [NPC 15670], the “% Inhibition Intraperitoneal” value was found to be 117%.

Staying with this test, now noted: i.p., 100 mg/kg; 3 h.
Regarding `O=C(CCC1c2ccccc2-c2ccccc21)N[C@@H](CCc1ccccc1)C(=O)O` [NPC 15895, N-[3-(9H-Fluoren-9-yl)propionyl]-L-Homophenylalanine, quarter hydrate], the “% Inhibition Intraperitoneal” value stood at 67%.
In the case of `CCCC[C@H](NC(=O)CCC1c2ccccc2-c2ccccc21)C(=O)O` [NPC 15894, N-[3-(9H-Fluoren-9-yl)propionyl]-L-norleucine, quarter hydrate], the “% Inhibition Intraperitoneal” value stood at 68%.
On the same count and under the same terms, with `Cc1cccc2c1-c1c(C)cccc1C2COC(=O)N[C@@H](CC(C)C)C(=O)O` [NPC 15670] the figure was 150%.

The subject of the next test is Ear Edema Caused by Arachidonic Acid. As to the kind of experiment: Inhibition of Ear Edema Caused by Arachidonic Acid (II), Table 8. The format is in vivo, CF-1 mice. The following applies: i.p., 10 mg/kg; sixty minutes. The method, then: Inhibition of Ear Edema Caused by Arachidonic Acid (II)
CF-1 mice, 25-30 g body weight, six animals per group, were used. The requisite amount of the test compound was dissolved is dimethyl sulfoxide or 0.5% methylcellulose and 100 μL of the solution was injected intraperitoneally 30 minutes prior to the administration of 100 mg/kg of arachidponic acid. A solution of this irritant, b 100 mg/mL in ethanol, was applied to the surface of the ear, 5 μL to the upper surface and 5 μL to the lower surface. After sixty minutes, the thickness of the ear was measured to 0.01 mm by a micrometer with the loose drag positioned at the lateral-most edge of the mid-point of the pinna. Data were calculated as the percent inhibityion by the test compound of increased ear thickness compared to control animals recieveing only the irritant.
Regarding `O=C(CCC1c2ccccc2-c2ccccc21)N[C@@H](CCc1ccccc1)C(=O)O` [NPC 15895, N-[3-(9H-Fluoren-9-yl)propionyl]-L-Homophenylalanine, quarter hydrate], the “% Inhibition Intraperitoneal” value is 14%.
Still for that read-out and setting: with `CCCC[C@H](NC(=O)CCC1c2ccccc2-c2ccccc21)C(=O)O` [NPC 15894, N-[3-(9H-Fluoren-9-yl)propionyl]-L-norleucine, quarter hydrate] the figure was 22%.

Still in this test, the particulars now being: i.p., 30 mg/kg; sixty minutes.
Consider `O=C(CCC1c2ccccc2-c2ccccc21)N[C@@H](CCc1ccccc1)C(=O)O` [NPC 15895, N-[3-(9H-Fluoren-9-yl)propionyl]-L-Homophenylalanine, quarter hydrate], for which the “% Inhibition Intraperitoneal” value was determined as 26%.
Take `CCCC[C@H](NC(=O)CCC1c2ccccc2-c2ccccc21)C(=O)O` [NPC 15894, N-[3-(9H-Fluoren-9-yl)propionyl]-L-norleucine, quarter hydrate]: the “% Inhibition Intraperitoneal” value amounted to 40%.

The same test, now with this note: i.p., 100 mg/kg; sixty minutes.
`O=C(CCC1c2ccccc2-c2ccccc21)N[C@@H](CCc1ccccc1)C(=O)O` [NPC 15895, N-[3-(9H-Fluoren-9-yl)propionyl]-L-Homophenylalanine, quarter hydrate]: the “% Inhibition Intraperitoneal” value was 52%.
For `CCCC[C@H](NC(=O)CCC1c2ccccc2-c2ccccc21)C(=O)O` [NPC 15894, N-[3-(9H-Fluoren-9-yl)propionyl]-L-norleucine, quarter hydrate], the “% Inhibition Intraperitoneal” value was 60%.

The subject of the next test is Ear Edema Caused by Xylene. Put plainly: Inhibition of Ear Edema Caused by Xylene (II), Table 9. Type of test: in vivo, CF-1 mice. To be noted: i.p., 10 mg/kg; 2 h. The procedure:
Inhibition of Ear Edema Caused by Xylene (II)
CF-1 mice, 25-30 g body weight, six animals per group, were used. The requisite amount of the test compound was dissolved is dimethyl sulfoxide or 0.5% methylcellulose and 100 μL of the solution was injected intraperitoneally 30 minutes prior to the administration the irritant. The irritant xylene was applied to the surface of the ear, 20 μL to the upper surface and 20 μL to the lower surface, After two hours, the thickness of the ear was measured to 0.01 mm by a micrometer with the loose drag positioned at the lateral-most edge of the mid-point of the pinna. Data were calculated as the percent inhibition by the test compound of increased ear thickness compared to control animals receiving only the irritant.
Take `O=C(CCC1c2ccccc2-c2ccccc21)N[C@@H](CCc1ccccc1)C(=O)O` [NPC 15895, N-[3-(9H-Fluoren-9-yl)propionyl]-L-Homophenylalanine, quarter hydrate]: the % Inhibition – broadly, the relative decrease from the control value, in per cent – was 0%.
As to `CCCC[C@H](NC(=O)CCC1c2ccccc2-c2ccccc21)C(=O)O` [NPC 15894, N-[3-(9H-Fluoren-9-yl)propionyl]-L-norleucine, quarter hydrate], the “% Inhibition” value is 0%.
On to `Cc1cccc2c1-c1c(C)cccc1C2COC(=O)N[C@@H](CC(C)C)C(=O)O` [NPC 15670], for which the “% Inhibition” value is listed as 78%.

Still in this test, the particulars now being: i.p., 30 mg/kg; 2 h.
In the case of `O=C(CCC1c2ccccc2-c2ccccc21)N[C@@H](CCc1ccccc1)C(=O)O` [NPC 15895, N-[3-(9H-Fluoren-9-yl)propionyl]-L-Homophenylalanine, quarter hydrate], the “% Inhibition” value is on record as 0%.
Consider `CCCC[C@H](NC(=O)CCC1c2ccccc2-c2ccccc21)C(=O)O` [NPC 15894, N-[3-(9H-Fluoren-9-yl)propionyl]-L-norleucine, quarter hydrate], for which the “% Inhibition” value worked out at 0%.
Still for that read-out and setting: in the case of `Cc1cccc2c1-c1c(C)cccc1C2COC(=O)N[C@@H](CC(C)C)C(=O)O` [NPC 15670] it was 46%.

The same test, now with this note: i.p., 100 mg/kg; 2 h.
As to `O=C(CCC1c2ccccc2-c2ccccc21)N[C@@H](CCc1ccccc1)C(=O)O` [NPC 15895, N-[3-(9H-Fluoren-9-yl)propionyl]-L-Homophenylalanine, quarter hydrate], the “% Inhibition” value was 51%.
`CCCC[C@H](NC(=O)CCC1c2ccccc2-c2ccccc21)C(=O)O` [NPC 15894, N-[3-(9H-Fluoren-9-yl)propionyl]-L-norleucine, quarter hydrate]: the “% Inhibition” value was 34%.
As to `Cc1cccc2c1-c1c(C)cccc1C2COC(=O)N[C@@H](CC(C)C)C(=O)O` [NPC 15670], the “% Inhibition” value amounted to 50%.

The test system of a further test is Ear Edema Caused by Oxazolone. As to the kind of experiment: Inhibition of Ear Edema Caused by Oxazolone (II), Table 10. Type of test: in vivo, CF-1 mice. To be noted: i.p., 10 mg/kg; 24 h. The procedure: Inhibition of Ear Edema Caused by Oxazolone (II)
CF-1 mice, 25-30 g body weight, five to six animals per group were used. The mice were sensitized to the irritant two weeks prior to the test by dribbling 100 μL of a 3% solution of oxazolone in acetone onto the abdominal skin of the animal. Test compounds were administered intraperitoneally as follows. […] The irritant, 3% oxazolone in acetone, was added to the surface of the ear, 5 μL added to the upper surface and 5 μL added to the lower surface. After twenty four hours, the thickness of the ear was measured to 0.01 mm by a micrometer with loose drag, positioned at the lateral-most edge of the mid-point of the pinna. Data were calculated as the inhibition of increased ear thickness compared to control animals' receiving only the irritant.
Regarding `O=C(CCC1c2ccccc2-c2ccccc21)N[C@@H](CCc1ccccc1)C(=O)O` [NPC 15895, N-[3-(9H-Fluoren-9-yl)propionyl]-L-Homophenylalanine, quarter hydrate], the “% Inhibition Intraperitoneal” value is 4%.
On the same count and under the same terms, with `CCCC[C@H](NC(=O)CCC1c2ccccc2-c2ccccc21)C(=O)O` [NPC 15894, N-[3-(9H-Fluoren-9-yl)propionyl]-L-norleucine, quarter hydrate] the figure was 29%.
On the same count and under the same terms, in the case of `Cc1cccc2c1-c1c(C)cccc1C2COC(=O)N[C@@H](CC(C)C)C(=O)O` [NPC 15670] it was -36%.

Staying with this test, now noted: i.p., 30 mg/kg; 24 h.
As to `O=C(CCC1c2ccccc2-c2ccccc21)N[C@@H](CCc1ccccc1)C(=O)O` [NPC 15895, N-[3-(9H-Fluoren-9-yl)propionyl]-L-Homophenylalanine, quarter hydrate], the “% Inhibition Intraperitoneal” value was 12%.
Regarding `CCCC[C@H](NC(=O)CCC1c2ccccc2-c2ccccc21)C(=O)O` [NPC 15894, N-[3-(9H-Fluoren-9-yl)propionyl]-L-norleucine, quarter hydrate], the “% Inhibition Intraperitoneal” value came out at 14%.
Consider `Cc1cccc2c1-c1c(C)cccc1C2COC(=O)N[C@@H](CC(C)C)C(=O)O` [NPC 15670], for which the “% Inhibition Intraperitoneal” value turned out to be 43%.

Staying with this test, now noted: i.p., 100 mg/kg; 24 h.
`O=C(CCC1c2ccccc2-c2ccccc21)N[C@@H](CCc1ccccc1)C(=O)O` [NPC 15895, N-[3-(9H-Fluoren-9-yl)propionyl]-L-Homophenylalanine, quarter hydrate]: the “% Inhibition Intraperitoneal” value stood at 71%.
As for `CCCC[C@H](NC(=O)CCC1c2ccccc2-c2ccccc21)C(=O)O` [NPC 15894, N-[3-(9H-Fluoren-9-yl)propionyl]-L-norleucine, quarter hydrate], the “% Inhibition Intraperitoneal” value was 35%.

For a further test, the system named is Reverse Passive Artus Reaction. As to the kind of experiment: Reverse Passive Artus Reaction (II), Table 11. Type of test: in vivo, Male CD rats. The following applies: inhibition of blueing; i.p., 100 mg/kg. The procedure:
Reverse Passive Artus Reaction (II) Male CD rats weighing between 200 and 250 g were used. […] The animals were anesthetized inhalationally with isoflurane and then injected through the penile vein with 1 mL of a solution of 2.5 mg of Evan's blue dye and 5.0 mg of human serum albumin in 1 mL of saline. This treatment was followed immediately by intracutaneous injections of 0.03 mL of anti-human albumin diluted to contain 3.65 mg of antibody at 3 sites along the midline back. Anesthesia was terminated and after three hours, the animals were sacrificed. The skin was removed and the blue stained areas cut out. The skin patches were soaked overnight in stoppered tubes containing 1 mL of 1 N potassium hydroxide at 37° C. Then 9 mL of a mixture of five parts of a 0.6 N phosphoric acid and thirteen parts of acetone were added to the tubes. The tube contents were agitated and centrifuged, and the absorbance measured at 620 nm. The data were calculated as inhibition of blueing by test compound compared to control animals receiving only antigen and antibody.
Regarding `Cc1cccc2c1-c1c(C)cccc1C2COC(=O)N[C@@H](CC(C)C)C(=O)O` [NPC 15670], the “% Inhibition Intraperitoneal” value was 82%.
